{"source": "patent US20100021530A1", "about": "“ENHANCED TRANS-KERATIN DRUG DELIVERY” (Innovation Biomedical Devices, Inc., priority 2008, published 2010)", "origin": "cited, not measured here", "tested_on": "Tinea unguium or onychomycosis (nail fungus)", "settings": "topical, after a year of treatment, at best"}
{"compound": "Cc1cc(C2CCCCC2)n(O)c(=O)c1", "note": "[ciclopirox]", "values": [{"measurement": "cure rate", "value": "around 20%"}]}
